{"source": "patent US20110070552A1", "about": "“USE OF SECONDARY OPTICAL EMISSION AS A NOVEL BIOFILM TARGETING TECHNOLOGY” (NOMIR MEDICAL TECHNOLOGIES INC, priority 2003, published 2011)", "type_in_all_cases": "in vivo, human", "key": {"[1]": {"system": "biofilm in periodontal pocket", "test": "Treatment of a recalcitrant 10 mm periodontal pocket: chromophore staining plus 830 nm diode laser hot tip", "conditions": "one patient; for periodontal pocket probing depth: baseline 10 mm pocket, 0.1% MB solution, laser 1000 mW", "text": "(§1) The laser used to exemplify the invention was a 830 nm diode laser with a power output of between 800 mW-1200 mW in the Continuous Wave mode of operation, through a 600 micron silica laser delivery fiber. The live human patients (in vivo) all presented with some advanced state of periodontal or periimplant disease and/or active infection. Presented below are data for two representative patients.\nPresented as a healthy […] with a recalcitrant 10 mm periodontal pocket on the facial aspect of the maxillary canine (tooth #6) after a regular dental cleaning and scaling. In a minimally invasive procedure, the patient was anesthetized with xylocaine, and the periodontal pocket was infused with 0.1% MB solution via a small bristled brush that easily fits into the volume of the pocket. The MB solution was left for approximately 2 minutes in the area, and then surface irrigation of H2O was applied.\nA […] silica fiber connected to a 830 nm dental diode laser (sold by Lumenis Technologies, Yokneam, Israel) was then activated at 1000 mW and the fiber was placed into the periodontal pocket, where it immediately came in contact with biofilm, tissue, and blood products. The tip of the fiber immediately carbonized, and became incandescent. The fiber (with the secondary quantum emissions emanating from the carbonized tip), was then moved around the three dimensional area of the periodontal pocket for a period of 30 to 45 seconds in rapid movements, never staying in one direct area for more than 1 second at a time. The area was then scaled with traditional gracey periodontal scalers (sold by Hu-Friedy Chicago, Ill.), and then irrigated with copious water. The patient was sent home with administration of 600 mg of Ibuprophen (sold by Wyeth, Madison, N.J.) analgesic given chair-side, and no antibiotics."}, "[2]": {"system": "biofilm and infection around titanium implant", "test": "Treatment of infected periimplant tissue: chromophore staining plus 830 nm diode laser hot tip", "text": "as §1\nPresented as a brittle diabetic with an infected titanium implant and a fistula draining the infection. Radiographic appearance detailed 8 mm of lost bone, and generalized radiolucency around the medial half of the implant. […] The area was surgically opened with a conventional trapezoidal shaped flap, and the infection and biofilm effected area was bathed in a 0.1% MB solution (sold by Vista Dental Products, Racine, Wis.) for approximately 2 minutes. The area was then irrigated with copious H2O, leaving the targeted biofilm behind, and washing away excess stain. A […] silica fiber connected to an 830 nm dental diode laser was then activated at 1200 mW and the fiber was placed in contact with biofilm and blood products and immediately carbonized. […]"}, "[3]": {"system": "periodontal and periimplant pockets and infections", "test": "Procedure performed on 50 patients in periodontal and periimplant pockets and infections", "conditions": "50 patients in the last 24 months, 830 nm diode laser 800 mW-1200 mW CW, 600 micron fiber", "text": "as §1"}}}
{"compound": "CN(C)c1ccc2nc3ccc(=[N+](C)C)cc-3sc2c1", "note": "[Methylene Blue]", "values": [{"measurement": "state of the periodontal pocket", "setting": "[1]; 0.1% MB solution approx. 2 minutes, laser 1000 mW 30 to 45 seconds, then scaling, eight days post-op", "result": "completely closed"}, {"measurement": "periodontal pocket probing depth", "setting": "[1]; at four months", "result": 3, "unit": "mm"}, {"measurement": "periodontal pocket probing depth", "setting": "[1]; at six weeks", "result": 3, "unit": "mm"}, {"measurement": "infection status of periimplant area", "setting": "[2]; one diabetic patient, 0.1% MB solution approx. 2 minutes, laser 1200 mW 60 to 90 seconds, scaling, 5 day Amoxicillin, three weeks post-op", "result": "completely free of infection"}, {"measurement": "infection status of periimplant area", "setting": "[2]; same patient, at 9 months", "result": "still infection free"}, {"measurement": "clinical outcome", "setting": "[3]", "result": "successful outcomes"}]}
{"compound": "Cc1cc2nc3ccc(N(C)C)cc3[s+]c2cc1N.[Cl-]", "note": "[Toludine Blue]", "values": [{"measurement": "clinical outcome", "setting": "[3]", "result": "successful outcomes"}]}
